Consider 2 molecules from patent US20030215787A1, “Modulators of the CLC-7 chloride channel and methods for their identification and use in the treatment and prevention of osteoporosis and related disease states” (priority 2002, published 2003).

Test [1] relates to mature osteoclasts. The following applies: known non-specific chloride channel inhibitor; cited from earlier work.
The test system of test [2] is Raw264.7 cells. Briefly: RNAi transfection and bone resorption (bovine cortical bone particles, C-telopeptide Crosslaps ELISA). Type of test: cell-based, mouse. The following applies: 100 ng/ml RANKL, day 7, FIG. 2. The protocol:
For RNAi transfection and bone resorption, the experiment was performed as follows: 1×10^4 Raw264.7 cells were seeded per 48 well and were cultured for 4 days with 100 ng/ml RANKL. The RNAi reagent was obtained from Sequitur. On day 4, the cells were transfected with 150 nM RNAi and 2 μg/ml lipofectamine overnight. The next day, the medium was replaced and 10 mg of powered bovine cortical bone particles (PelFreeze, Inc) were distributed into each well (James, I. E., et al. (1999) J. Bone Miner. Res., 14:1562-9). The particles were resuspended in […] of tissue culture media and incubated at 4° C. for 24 h storage. 200 μl bone particles were added to the precultured cells. The bone particles were allowed to settle for 10 min, and the cells were cultured for another 48 h at which time 100 μl of the supernatant was removed for the C-telopeptide Crosslaps™ ELISA analysis according to the manufacturer's instructions (Nordic Bioscience/Denmark). The absorbance was measured at 450 nm (Molecular Devices, Sunnyvale, Calif.).

Consider `O=C(O)c1cccnc1Nc1cccc(C(F)(F)F)c1` [niflumic acid], for which the “acidification of mature osteoclasts” value in test [1] is on record as “inhibits the acidification”.

B1: RANKL: recombinant soluble RANKL: extracellular domain of human RANKL (amino acids 158-317) fused to glutathione-S-transferase, expressed in E. coli (protein, UniProt O14788 158-317, looked up, fragment)
chain: SKLEAQPFAHLTINATDIPSGSHKVSLSSWYHDRGWAKISNMTFSNGKLIVNQDGFYYLYANICFRHHETSGDLATEYLQLMVYVTKTSIKIPSSHTLMKGGSTKYWSGNSEFHFYSINVGGFFKLRSGEEISIEVSNPSLLDPDQDATYFGAFKVRDID
modifications: extracellular domain GST fusion
notes: recombinant soluble RANKL: extracellular domain of human RANKL (amino acids 158-317) fused to glutathione-S-transferase, expressed in E. coli
As to B1, the “increase of bone resorption” value in test [2] came to 2.2 fold.
